From ChEMBL document CHEMBL3045442, “Fungicidal activity of pipernonaline, a piperidine alkaloid derived from long pepper, Piper longum L., against phytopathogenic fungi” (2001) come the findings set out here.

What all share (format): functional
What all share (set-up): scale not given: the % may be the effect or the level left

For experiment [1], the system named is Phytophthora infestans. The experiment in a line: Fungicidal activity against Phytophthora infestans infected tomato assessed as reduction in tomato late blight disease at 50 mg/l applied for 1 day prior to infection relative to untreated control.
Experiment [2] concerns Botrytis cinerea. Put plainly: Fungicidal activity against Botryotinia fuckeliana infected cucumber assessed as reduction in cucumber gray mold disease at 50 mg/l applied for 1 day prior to infection relative to untreated control.
Experiment [3] concerns Pyricularia grisea. The experiment in a line: Fungicidal activity against Magnaporthe grisea infected rice assessed as reduction in rice blast disease at 1000 mg/l applied for 1 day prior to infection relative to untreated control.
In experiment [4] the test system is Botrytis cinerea. The experiment in a line: Fungicidal activity against Botryotinia fuckeliana infected cucumber assessed as reduction in cucumber gray mold disease at 1000 mg/l applied for 1 day prior to infection relative to untreated control.
Experiment [5] concerns Puccinia recondita. Put plainly: Fungicidal activity against Puccinia recondita infected wheat assessed as reduction in wheat leaf rust disease at 500 mg/l applied for 1 day prior to infection relative to untreated control.
The test system of experiment [6] is Blumeria graminis. Put plainly: Fungicidal activity against Blumeria graminis infected barley assessed as reduction in powdery mildew disease at 500 mg/l applied for 1 day prior to infection relative to untreated control.
For experiment [7], the system named is Botrytis cinerea. The experiment in a line: Fungicidal activity against Botryotinia fuckeliana infected cucumber assessed as reduction in cucumber gray mold disease at 500 mg/l applied for 1 day prior to infection relative to untreated control.
The test system of experiment [8] is Rhizoctonia solani. Put plainly: Fungicidal activity against Rhizoctonia solani infected rice assessed as reduction in rice sheath blight disease at 1000 mg/l applied for 1 day prior to infection relative to untreated control.
Experiment [9] concerns Blumeria graminis. The experiment in a line: Fungicidal activity against Blumeria graminis infected barley assessed as reduction in powdery mildew disease at 1000 mg/l applied for 1 day prior to infection relative to untreated control.
In experiment [10] the test system is Puccinia recondita. The experiment in a line: Fungicidal activity against Puccinia recondita infected wheat assessed as reduction in wheat leaf rust disease at 1000 mg/l applied for 1 day prior to infection relative to untreated control.
Experiment [11] has as its system Pyricularia grisea. The experiment in a line: Fungicidal activity against Magnaporthe grisea infected rice assessed as reduction in rice blast disease at 500 mg/l applied for 1 day prior to infection relative to untreated control.
In experiment [12] the test system is Rhizoctonia solani. Put plainly: Fungicidal activity against Rhizoctonia solani infected rice assessed as reduction in rice sheath blight disease at 500 mg/l applied for 1 day prior to infection relative to untreated control.
Experiment [13] has as its system Phytophthora infestans. Put plainly: Fungicidal activity against Phytophthora infestans infected tomato assessed as reduction in tomato late blight disease at 1000 mg/l applied for 1 day prior to infection relative to untreated control.
Experiment [14] relates to Phytophthora infestans. The experiment in a line: Fungicidal activity against Phytophthora infestans infected tomato assessed as reduction in tomato late blight disease at 500 mg/l applied for 1 day prior to infection relative to untreated control.
For experiment [15], the system named is Blumeria graminis. The experiment in a line: Fungicidal activity against Blumeria graminis infected barley assessed as reduction in powdery mildew disease at 250 mg/l applied for 1 day prior to infection relative to untreated control.
In experiment [16] the test system is Botrytis cinerea. Put plainly: Fungicidal activity against Botryotinia fuckeliana infected cucumber assessed as reduction in cucumber gray mold disease at 250 mg/l applied for 1 day prior to infection relative to untreated control.
The test system of experiment [17] is Rhizoctonia solani. The experiment in a line: Fungicidal activity against Rhizoctonia solani infected rice assessed as reduction in rice sheath blight disease at 250 mg/l applied for 1 day prior to infection relative to untreated control.
Experiment [18] deals with Puccinia recondita. Put plainly: Fungicidal activity against Puccinia recondita infected wheat assessed as reduction in wheat leaf rust disease at 250 mg/l applied for 1 day prior to infection relative to untreated control.
Experiment [19] deals with Pyricularia grisea. The experiment in a line: Fungicidal activity against Magnaporthe grise infected rice assessed as reduction in rice blast disease at 250 mg/l applied for 1 day prior to infection relative to untreated control.
In experiment [20] the test system is Phytophthora infestans. The experiment in a line: Fungicidal activity against Phytophthora infestans infected tomato assessed as reduction in tomato late blight disease at 250 mg/l applied for 1 day prior to infection relative to untreated control.

For the compound `N#Cc1c(Cl)c(Cl)c(Cl)c(C#N)c1Cl` [CHLOROTHALONIL], the Activity in experiment [1] is 95%.

For the compound `CN(C)S(=O)(=O)N(SC(F)(Cl)Cl)c1ccccc1` [DICHLOFLUANID], the Activity in experiment [2] was 92%.

For the compound `C=CCc1ccc(O)c(OC)c1` [EUGENOL], the Activity in experiment [3], in experiment [4], in experiment [5], in experiment [6], in experiment [7] and in experiment [8] was 0% throughout. For the same compound, the Activity came out at 5% in experiment [9]; 0% in experiment [10]; 0% in [11]; 0% in experiment [12]; 0% in experiment [13]; 0% in [14].

Turning to `O=C(CCCC/C=C/c1ccc2c(c1)OCO2)N1CCCCC1` [PIPERETTINE], the Activity in experiment [3] is 0%; in experiment [4], 0%; in [5], 0%; in experiment [6], 40%; in experiment [7] it was 0%; in [8], 0%. Moreover, the Activity is given as 60% in experiment [9]; 0% in [10]; 0% in [11]; 0% in [12]; 0% in experiment [13]; 0% in [14].

For `O=C(/C=C/C=C/c1ccc2c(c1)OCO2)N1CCCCC1` [PIPERINE], the Activity in [3], in experiment [4], in experiment [5], in [6], in experiment [7] and in [8] was 0% in each case. Also, the Activity in experiment [9], in [10], in experiment [11], in experiment [12], in experiment [13] and in [14] was 0% in each case.

Regarding `O=C(/C=C/CCCC/C=C/c1ccc2c(c1)OCO2)N1CCCCC1` [PIPERNONALINE], the Activity stood at 71% in experiment [3]; 0% in experiment [4]; 0% in [15]; 91% in experiment [5]; 0% in [16]; 0% in experiment [6]. The Activity was 0% in [17]; 0% in experiment [7]; 35% in experiment [8]; 0% in experiment [9]; 100% in [10]; 51% in experiment [11]. Moreover, the Activity in experiment [18] was determined as 80%; in experiment [19], 26%; in experiment [20], 55%; in experiment [12] it was 0%; in experiment [13], 91%; in experiment [14], 80%.

Consider `COc1cc(/C=C/C(=O)N2CCC=CC2=O)cc(OC)c1OC` [PIPLARTINE], for which the Activity in [3] is listed as 10%; in experiment [4], 0%; in [5], 0%; in experiment [6] it was 0%; in experiment [7], 0%; in experiment [8], 0%. Besides, the Activity in experiment [9], in experiment [10], in experiment [11], in experiment [12], in [13] and in [14] was 0% throughout.
